Reference: US20240246941A1, “SUBSTITUTED 4-(3-AMINOPROP-1-YL)AMINOQUINOLINE ANALOGS AS MODULATORS OF MELANOMA-ASSOCIATED ANTIGEN 11 UBIQUITIN LIGASE” (ST. JUDE CHILDREN'S RESEARCH HOSPITAL, INC., priority 2020, published 2024)

target: interaction between GST-MAGEA11 MHD and FAM-PCF11_4 peptide (MAGE-A11:PCF11) (Homo sapiens (Human), UniProt P43364); assay: TR-FRET dose response competition assay for disruption of MAGE-A11:PCF11 binding; details: Dose response TR-FRET screening of nine scaffold groups against MAGE-A11:PCF11; read-out: consensus IC50
Summary of the method: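 Competition TR-FRET at room temperature in 50 mM Tris pH 7.5, 20 mM MgCl2, 0.1 mg/ml BSA, 1 mM DTT: final 5 nM GST-MAGEA11 MHD, 5 nM Tb-anti-GST, 200 nM FAM-PCF11_4, 90 min. Ratio 520/490 nm converted to % inhibition; IC50 from sigmoidal fit.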

Chain of interaction between GST-MAGEA11 MHD and FAM-PCF11_4 peptide (MAGE-A11:PCF11) (P43364 218-429): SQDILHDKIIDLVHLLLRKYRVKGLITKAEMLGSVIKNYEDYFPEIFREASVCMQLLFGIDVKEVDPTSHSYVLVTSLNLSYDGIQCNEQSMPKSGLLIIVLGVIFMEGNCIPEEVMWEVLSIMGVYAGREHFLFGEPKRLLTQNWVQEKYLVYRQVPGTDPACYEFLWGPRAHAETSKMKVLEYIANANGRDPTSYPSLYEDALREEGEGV

Compared with COc1ccc(F)cc1CNCCCNc1ccnc2cc(Cc3ccc(C#N)cc3)ccc12 [SJ000311305-1], COc1ccc(F)cc1CNCCCNc1ccnc2cc(Cc3ccccc3)ccc12 [SJ000311309-1] is 3.8-fold lower in IC50: 69.9 µM for the first, 18.3 µM for the second. The second is the more potent here.

Going from COc1cccc(CNCCCNc2ccnc3cc(Cc4ccccc4)ccc23)c1O [SJ000311307-1] to COc1cccc(CNCCCNc2ccnc3cc(Cc4c(Cl)cccc4Cl)ccc23)c1O [SJ000311315-1], the IC50 falls from 69.9 µM to 13.8 µM (5.1-fold).

Compared with c1ccc(Cc2ccc3c(NCCCNCc4cccc5c4OCO5)ccnc3c2)cc1 [SJ000311308-1], Clc1cccc(Cl)c1Cc1ccc2c(NCCCNCc3cccc4c3OCO4)ccnc2c1 [SJ000311316-1] is 4.2-fold lower in IC50: 46.1 µM for the first, 11 µM for the second.

COc1cc(Cc2ccc3c(NCCCNCc4cccc(OC)c4O)ccnc3c2)cc(OC)c1 [SJ000311311-1] and COc1cc(Cc2ccc3c(NCCCNCc4cc(F)ccc4OC)ccnc3c2)cc(OC)c1 [SJ000311313-1] are within 1.5-fold of each other in IC50: 33.6 µM for the first, 33.8 µM for the second.

Going from COc1cc(Cc2ccc3c(NCCCNCc4cccc5c4OCO5)ccnc3c2)cc(OC)c1 [SJ000311312-1] to Cc1cc(C)cc(Cc2ccc3c(NCCCNCc4cccc5c4OCO5)ccnc3c2)c1 [SJ000311320-1], the IC50 falls from 31.3 µM to 16.3 µM (1.9-fold).

COc1ccc(F)cc1CNCCCNc1ccnc2cc(Cc3c(Cl)cccc3Cl)ccc12 [SJ000311317-1] and COc1ccc(F)cc1CNCCCNc1ccnc2cc(Cc3ccc(F)cc3Cl)ccc12 [SJ000311325-1] are within 1.5-fold of each other in IC50: 12.2 µM for the first, 17.6 µM for the second.

First: COc1cccc(CNCCCNc2ccnc3cc(Cc4cc(C)cc(C)c4)ccc23)c1O [SJ000311319-1]
Second: COc1ccc(F)cc1CNCCCNc1ccnc2cc(Cc3cc(C)cc(C)c3)ccc12 [SJ000311321-1]
The IC50 of the first is 2.6-fold higher: 23.6 µM for the first, 9.04 µM for the second. The second is the more potent here.

COc1cccc(CNCCCNc2ccnc3cc(Cc4ccc(F)cc4Cl)ccc23)c1O [SJ000311323-1] and Fc1ccc(Cc2ccc3c(NCCCNCc4cccc5c4OCO5)ccnc3c2)c(Cl)c1 [SJ000311324-1] are within 1.5-fold of each other in IC50: 17.6 µM for the first, 20.6 µM for the second.

COc1cccc(F)c1CNCCCNc1ccnc2cc(Cl)ccc12 [SJ000311328-2] and Clc1ccc2c(NCCCNCc3ccccc3)ccnc2c1 [SJ000361100-1] are the same in IC50: 69.9 µM for the first, 69.9 µM for the second.

Going from O=C1C(Cl)=C(NCCN2CCOCC2)C(=O)c2ncccc21 [SJ000312204-6] to CCCn1c(=O)[nH]c(=O)c2c1nc(-c1ccc(C(C)(C)C)cc1)n2CCN1CCOCC1 [SJ000377955-1], the IC50 rises from 2.25 µM to 69.9 µM (31-fold). The first is the more potent here.

Compared with Cc1ccccc1-c1nc(S(=O)(=O)c2ccc(F)cc2)c(N2CC(C)OC(C)C2)o1 (stereo not drawn) [SJ000329031-1], Cc1ccc(S(=O)(=O)c2nc(-c3ccccc3C)oc2N2CC(C)OC(C)C2)cc1 (stereo not drawn) [SJ000329041-1] is 5.9-fold lower in IC50: 69.9 µM for the first, 11.8 µM for the second. The second is the more potent here.

First: Cc1ccccc1-c1nc(S(=O)(=O)c2ccc(Cl)cc2)c(N2CC(C)OC(C)C2)o1 (stereo not drawn) [SJ000329051-1]
Second: Cc1ccc(S(=O)(=O)c2nc(-c3ccccc3Cl)oc2N2CC(C)OC(C)C2)cc1 (stereo not drawn) [SJ000329066-1]
The IC50 of the first is 5.4-fold higher: 69.9 µM for the first, 13 µM for the second.

First: CC1CN(c2oc(-c3ccccc3F)nc2S(=O)(=O)c2ccc(F)cc2)CC(C)O1 (stereo not drawn) [SJ000329067-1]
Second: O=C1OCC(c2ccc(F)cc2)=C1c1ccc([N+](=O)[O-])cc1 [SJ000368155-1]
The IC50 of the first is 2.6-fold lower: 27.3 µM for the first, 69.9 µM for the second.

FC(F)(F)c1ccc2c(NCCCNCc3ccc4c(c3)OCO4)ccnc2c1 [SJ000361106-1] and FC(F)(F)c1ccc2c(NCCCNCc3ccccc3)ccnc2c1 [SJ000361107-1] are the same in IC50: 69.9 µM for the first, 69.9 µM for the second.

Clc1ccc2c(NCCCNCc3c4ccccc4cc4ccccc34)ccnc2c1 [SJ000361122-2] and FC(F)(F)c1ccc2c(NCCCNCc3c4ccccc4cc4ccccc34)ccnc2c1 [SJ000361126-1] are the same in IC50: 69.9 µM for the first, 69.9 µM for the second.

Going from COc1ccc(C2=C(c3ccc([N+](=O)[O-])cc3)C(=O)OC2)cc1 [SJ000367280-1] to O=C1OCC(c2ccc(OC(F)F)cc2)=C1c1ccc([N+](=O)[O-])cc1 [SJ000368145-1], the IC50 falls from 69.9 µM to 40.8 µM (1.7-fold). The second is the more potent here.

CC(C)(C)c1ccc(C2=C(c3ccc([N+](=O)[O-])cc3)C(=O)OC2)cc1 [SJ000368097-1] and CCc1ccc(C2=C(c3ccc([N+](=O)[O-])cc3)C(=O)OC2)cc1 [SJ000368127-1] are the same in IC50: 69.9 µM for the first, 69.9 µM for the second.

CCCc1ccc(C2=C(c3ccc([N+](=O)[O-])cc3)C(=O)OC2)cc1 [SJ000368117-1] and CCC(C)c1ccc(C2=C(c3ccc([N+](=O)[O-])cc3)C(=O)OC2)cc1 (stereo not drawn) [SJ000368165-1] are the same in IC50: 69.9 µM for the first, 69.9 µM for the second.

CCCn1c(-c2ccc(Cl)cc2)nc2c1c(=O)[nH]c(=O)n2Cc1ccccc1 [SJ000375541-1] and CCCn1c(-c2ccc(C(C)(C)C)cc2)nc2c1c(=O)[nH]c(=O)n2Cc1ccccc1 [SJ000375920-1] are the same in IC50: 69.9 µM for the first, 69.9 µM for the second.

CCCn1c(-c2cccc([N+](=O)[O-])c2)nc2c1c(=O)[nH]c(=O)n2Cc1ccccc1 [SJ000376601-1] and CCCn1c(-c2ccc(OC(F)F)cc2)nc2c1c(=O)[nH]c(=O)n2Cc1ccccc1 [SJ000376621-1] are the same in IC50: 69.9 µM for the first, 69.9 µM for the second.

In the case of CCCn1c(=O)[nH]c(=O)c2c1nc(-c1ccc(OC(F)F)cc1)n2CCN1CCOCC1 [SJ000377779-1], the IC50 is reported as 69.9 µM.

same assay, conditions: Table 5, dose response TR-FRET screening of 59 quinoline compounds against MAGE-A11:PCF11; read-out: TR-FRET IC50

c1ccc(Cc2ccc3c(NCCCNCc4ccco4)ccnc3c2)cc1 [SJ000311306-2] and Clc1cccc(Cl)c1Cc1ccc2c(NCCCNCc3ccco3)ccnc2c1 [SJ000311314-1] are within 1.5-fold of each other in IC50: 32.2 µM for the first, 38.4 µM for the second.

Cc1cc(C)cc(Cc2ccc3c(NCCCNCc4ccco4)ccnc3c2)c1 [SJ000311318-2] and Cc1ccc(C)c(CN(CCCCNc2ccnc3cc(Cl)ccc23)Cc2ccccc2)c1 [SJ000361209-2] cannot be ordered by IC50: over 70 µM for the first, over 70 µM for the second.

Oc1c(F)cc(F)cc1CN(CCCCNc1ccnc2cc(Cl)ccc12)Cc1ccccc1 [SJ000357506-2] and Clc1ccc(CN(CCCCNc2ccnc3cc(Cl)ccc23)Cc2ccccc2)c(Cl)c1 [SJ000361207-2] cannot be ordered by IC50: over 70 µM for the first, over 70 µM for the second.

CC(C)(C)CCN(CCCCNc1ccnc2cc(Cl)ccc12)Cc1ccccc1 [SJ000357537-2] and CCC(C)CN(CCCCNc1ccnc2cc(Cl)ccc12)Cc1ccccc1 (stereo not drawn) [SJ000361208-2] cannot be ordered by IC50: over 70 µM for the first, over 70 µM for the second.

First: FC(F)(F)c1ccc2c(NCCCNCc3ccc[nH]3)ccnc2c1 [SJ000361105-1]
Second: CCCN(CCNc1ccnc2cc(C(F)(F)F)ccc12)Cc1ccc[nH]1 [SJ000361255-1]
The IC50 of the first is lower: 33 µM for the first, over 70 µM for the second. The first is the more potent here.

Going from CCCCCCNCCCNc1ccnc2cc(C(F)(F)F)ccc12 [SJ000361124-1] to CCCCCN(CCC)CCCNc1ccnc2cc(C(F)(F)F)ccc12 [SJ000361271-1], the IC50 rises from 57.6 µM to over 70 µM. The first is the more potent here.

C=C1C=C(C)C=C(C)C(CN(CCCNc2ccnc3cc(Cl)ccc23)Cc2ccccc2)=C1 [SJ000361169-2] and Clc1ccc2c(NCCCCN(Cc3ccccc3)CC3CCCCC3)ccnc2c1 [SJ000361194-2] cannot be ordered by IC50: over 70 µM for the first, over 70 µM for the second.

CCCN(CCCNc1ccnc2cc(C(F)(F)F)ccc12)CC1CC1 [SJ000361266-1] and CCCN(CCCNc1ccnc2cc(C(F)(F)F)ccc12)CC1CCCCC1 [SJ000361268-1] cannot be ordered by IC50: over 70 µM for the first, over 70 µM for the second.

In the case of CCCN(CCCNc1ccnc2cc(C(F)(F)F)ccc12)CC(CC)CC [SJ000361269-1], the IC50 is reported as over 70 µM.

same assay, conditions: Table 8, representative compounds; read-out: TR-FRET IC50

N#Cc1ccc(Cc2ccc3c(NCCCNCc4cccc5c4OCO5)ccnc3c2)cc1 [SJ000311304] and c1ccc(Cc2ccc3c(NCCCNCc4cccc5c4OCO5)ccnc3c2)cc1 [SJ000311308] are within 1.5-fold of each other in IC50: 66 µM for the first, 46.1 µM for the second.

Going from COc1ccc(F)cc1CNCCCNc1ccnc2cc(Cc3ccc(C#N)cc3)ccc12 [SJ000311305] to COc1ccc(F)cc1CNCCCNc1ccnc2cc(Cc3ccccc3)ccc12 [SJ000311309], the IC50 falls from 69.9 µM to 18.3 µM (3.8-fold). The second is the more potent here.

Going from COc1cccc(CNCCCNc2ccnc3cc(Cc4ccccc4)ccc23)c1O [SJ000311307] to COc1cccc(CNCCCNc2ccnc3cc(Cc4c(Cl)cccc4Cl)ccc23)c1O [SJ000311315], the IC50 falls from 69.9 µM to 13.8 µM (5.1-fold).

COc1cc(Cc2ccc3c(NCCCNCc4cccc(OC)c4O)ccnc3c2)cc(OC)c1 [SJ000311311] and COc1cc(Cc2ccc3c(NCCCNCc4cc(F)ccc4OC)ccnc3c2)cc(OC)c1 [SJ000311313] are within 1.5-fold of each other in IC50: 33.6 µM for the first, 33.8 µM for the second.

Compared with COc1cc(Cc2ccc3c(NCCCNCc4cccc5c4OCO5)ccnc3c2)cc(OC)c1 [SJ000311312], Cc1cc(C)cc(Cc2ccc3c(NCCCNCc4cccc5c4OCO5)ccnc3c2)c1 [SJ000311320] is 1.9-fold lower in IC50: 31.3 µM for the first, 16.3 µM for the second.

Going from Clc1cccc(Cl)c1Cc1ccc2c(NCCCNCc3cccc4c3OCO4)ccnc2c1 [SJ000311316] to Fc1ccc(Cc2ccc3c(NCCCNCc4cccc5c4OCO5)ccnc3c2)c(Cl)c1 [SJ000311324], the IC50 rises from 11 µM to 20.6 µM (1.9-fold).

COc1ccc(F)cc1CNCCCNc1ccnc2cc(Cc3c(Cl)cccc3Cl)ccc12 [SJ000311317] and COc1ccc(F)cc1CNCCCNc1ccnc2cc(Cc3ccc(F)cc3Cl)ccc12 [SJ000311325] are within 1.5-fold of each other in IC50: 12.2 µM for the first, 17.6 µM for the second.

First: COc1cccc(CNCCCNc2ccnc3cc(Cc4cc(C)cc(C)c4)ccc23)c1O [SJ000311319]
Second: COc1ccc(F)cc1CNCCCNc1ccnc2cc(Cc3cc(C)cc(C)c3)ccc12 [SJ000311321]
The IC50 of the first is 2.6-fold higher: 23.6 µM for the first, 9.04 µM for the second.

Compared with COc1cccc(CNCCCNc2ccnc3cc(Cc4ccc(F)cc4Cl)ccc23)c1O [SJ000311323], COc1cccc(F)c1CNCCCNc1ccnc2cc(Cl)ccc12 [SJ000311328] is 4-fold higher in IC50: 17.6 µM for the first, 69.9 µM for the second.

CCc1c2c(nc3ccc(OC(=O)N4CCC(N5CCCCC5)CC4)cc13)-c1cc3c(c(=O)n1C2)COC(=O)[C@]3(O)CC [SJ000312345] and Clc1ccc2c(NCCCNCc3c4ccccc4cc4ccccc34)ccnc2c1 [SJ000361122] cannot be ordered by IC50: over 58.7 µM for the first, 69.9 µM for the second.

Clc1ccc2c(NCCCNCc3ccccc3)ccnc2c1 [SJ000361100] and FC(F)(F)c1ccc2c(NCCCNCc3ccccc3)ccnc2c1 [SJ000361107] are the same in IC50: 69.9 µM for the first, 69.9 µM for the second.

With FC(F)(F)c1ccc2c(NCCCNCc3c4ccccc4cc4ccccc34)ccnc2c1 [SJ000361126] the IC50 was 69.9 µM.
